This passage reports mortality results from patent publication US20190161499A1, “PESTICIDALLY ACTIVE 1,2,4-TRIAZOLE DERIVATIVES” (SYNGENTA PARTICIPATIONS AG, priority 2015, published 2019).

The structures appear in SMILES notation.

What all share (type): in vivo
Test [1] has as its system Diabrotica Balteata (Corn Root Worm). Kind of test: Comparison: insecticidal activity against Diabrotica balteata. As to conditions: 96 h, 4 days after infestation. The protocol: (§1) Compound B is disclosed in WO2013/063282 as an example on page 114 (Table 4, M is CH(Me), Rx=2-F, Ry=4-Cl) and compound C is disclosed in WO 2013/173218 as example on page 123 (Table 14, M is CH(Me), R4a=2-F, R4b=4-Cl). The activities of compounds B and C to treat different pests are compared with the activities of compound A according to the present invention. The tests are carried out at different concentrations (ppm).
c) Insecticidal Activity Against Diabrotica Balteata (Corn Root Worm):
Maize sprouts, placed on an agar layer in 24-well microtiter plates were treated with aqueous test solutions prepared from 10,000 ppm DMSO stock solutions by spraying. After drying, the plates were infested with L2 larvae (6 to 10 per well). The samples were assessed for mortality and growth inhibition in comparison to untreated samples 4 days after infestation.

Test [2] has as its system Plutella xylostella (Diamond Back Moth). Kind of test: Comparison: insecticidal activity against Plutella xylostella. As to conditions: 120 h, 5 days after infestation. The protocol:
as §1
b) Insecticidal Activity Against Plutella xylostella (Diamond Back Moth):
24-well microtiter plates with artificial diet were treated with aqueous test solutions prepared from 10,000 ppm DMSO stock solutions by pipetting. After drying, the plates were infested with L2 larvae (10 to 15 per well). The samples were assessed for mortality and growth inhibition in comparison to untreated samples 5 days after infestation.

The subject of test [3] is Spodoptera littoralis (Egyptian Cotton Leaf Worm). Kind of test: Comparison: insecticidal activity against Spodoptera littoralis. As to conditions: 72 h, 3 days after infestation. The protocol:
as §1
a) Insecticidal Activity Against Spodoptera littoralis (Egyptian Cotton Leaf Worm)
Cotton leaf discs were placed onto agar in 24-well microtiter plates and sprayed with aqueous test solutions prepared from 10,000 ppm DMSO stock solutions. After drying the leaf discs were infested with five L1 larvae. The samples were assessed for mortality 3 days after infestation.

What is called mortality is the share of the test organisms that died. A high value points to a strong lethal effect. In test [1], `CC1CCN(Cc2nc(-c3ccc(Cl)cc3)nn2-c2ccccc2F)CC1` [A] returned a mortality at 12.5 ppm of 100%, a mortality at 50 ppm of 100% and a mortality at 200 ppm of 100%. Besides, in test [2], the mortality at 12.5 ppm worked out at 50%, the mortality at 50 ppm was 100% and the mortality at 200 ppm is 100%. In test [3], this compound had a mortality at 12.5 ppm of 100%, a mortality at 50 ppm of 100% and a mortality at 200 ppm of 100%.
With `CC1CCN(Cc2cn(-c3ccc(Cl)cc3)nc2-c2ccccc2F)CC1` [Compound B], the mortality at 12.5 ppm in test [1], in test [2] and in test [3] was 0% in each case. Further, the mortality at 50 ppm in test [1] was 100%; in test [2] it was 0%; in test [3], 0%. Besides, the mortality at 200 ppm in test [1] was determined as 100%; in test [2], 0%; in test [3] it was 100%.
`CC1CCN(Cc2nn(-c3ccc(Cl)cc3)nc2-c2ccccc2F)CC1` [Compound C]: in test [1], the mortality at 12.5 ppm is 0%, the mortality at 50 ppm is 100% and the mortality at 200 ppm is 100%. In test [2], this compound came in with a mortality at 12.5 ppm of 0%, a mortality at 50 ppm of 0% and a mortality at 200 ppm of 0%. In test [3], this compound displayed a mortality at 12.5 ppm of 0%, a mortality at 50 ppm of 0% and a mortality at 200 ppm of 50%.
